Experimental findings from US12070471B2, “Remote loading of sparingly water-soluble drugs into lipid vesicles” (CELATOR PHARMACEUTICALS, INC., priority 2014, dated 2024) are described below.

A short description of data set [1]: Aripiprazole precipitates from various solvents, absorbance at 600 nm with liposomes. The format is physicochemical. The note with it: drug initially dissolved in DMSO, 1-4-methylpyrrolidone, diethylenemonoethylether or polyethyleneglycol (MW400); 7.5% solvent; 65 C 30 min. The method, then: Aripiprazole was dissolved in a range of solvents indicated below at 4 mg/mL. Liposomes composed of HSPC/Chol/PEG-DSPE (3/2/0.15 mol/mol/mol) that were prepared in 250 mM ammonium sulfate were used and diluted to 6 mM in Hepes buffered sucrose 10% (wt/wt) (HBSuc pH 6.5). 0.3 mg of drug was introduced by slow addition of each solvent while vortexing. The final solvent concentration was 7.5% for all samples. As controls, the drug was added from each solvent to the same volume of HBSuc pH 6.5 without the liposomes. The samples were heated at 65° C. for 30 min then cooled on ice.

Data set [2] can be described thus: Aripiprazole loading into ammonium sulfate or sodium sulfate liposomes. The format is physicochemical. As to conditions: ratio of ammonium sulfate to sodium sulfate liposomes. The method, then: Liposomes (HSPC/Chol/PEG-DSPE 3/2/0.15 mol/mol/mol) containing 250 mM ammonium sulfate or 250 mM sodium sulfate were diluted in 1 mL of 50 mM citric acid, 10% (wt/wt) sucrose, pH 4.0 to a concentration of 6 mM phospholipid. 0.3 mg of aripiprazole was added from a stock solution of 15 mg/mL in DMSO, so that the final DMSO concentration was 2% (v/v). Fine precipitates were immediately observed after the drug was added to both liposome samples. The samples were heated at 65° C. for 30 min, the cooled on ice. The samples were filtered through a 0.2 um polyethersulfone syringe filter to remove any drug precipitates, followed by purification on a Sephadex G25 column equilibrated with HBS, pH 6.5 to remove any soluble extraliposome drug. The turbid fraction was collected and analyzed for lipid and drug as described above.

Turning to `O=C1CCc2ccc(OCCCCN3CCN(c4cccc(Cl)c4Cl)CC3)cc2N1` [aripiprazole], in data set [1], the “clarification of drug precipitate on incubation with liposomes (absorbance at 600 nm)” value is recorded as “clarified the drug precipitate”. In addition, the “% Efficiency NH4SO4/NaSO4” value in data set [2] is listed as 49.3.
